“Also recorded” adds a separate entry of the source. Read-outs that look alike come from different tables or passages of the source.
Columns and labels:
[1] = rat, in vivo
Method: Using these values of AUC(0-.infin.) and the doses applied, the bioavailability was calculated according to the following Equation 1. [formula]

[2] = Hygroscopic property: weight change on storage in a desiccator; type: physicochemical; details: 20° C.
Method: Each of the samples of the monohydrate of the present invention was put in a desiccator adjusted at a relative humidity of 57% or 98%, and then stored at 20° C. for 16 days. Weight changes during the period of time were measured. As controls, the anhydrous crystals obtained in the above process (a) in Example 1 were also stored in a desiccator adjusted at a relative humidity of 57% or 98%, and weight changes were measured. The results are shown in Table 2 [in the table, each of the values (%) represents a weight increase]. […] On the other hand, as for the anhydrous crystal, the weight increase of about 7% was observed, which corresponded to about 1 mole of the water of crystal.

[3] = Thermal analysis (TG-DTA); type: physicochemical; details: dry nitrogen, 5° C./min
Method: The anhydrous crystal described in Example 1 of the Japanese Patent Unexamined Publication (KOKAI) No.(Hei)3-7263/1991 and the monohydrate of the present invention were subjected to thermal analysis by a thermal analyzer (RIGAKU TAS-200) under dry nitrogen atmosphere using each of 10 mg of samples. The measurements were carried out in the temperature range of from 50 to 400° C. applying the temperature raising rate of 5° C./min. As the anhydrous crystals, those obtained in the above process (a) was used.

cardiac muscle cells = details: cited from earlier work
[4] = Stability and release of water of crystal of the monohydrate; type: physicochemical; details: for stability (in words): long period / room temperature / once formed, monohydrate
[5] = rat, in vivo; remark: listed apart in the source
[6] = Weight and appearance on further drying; type: physicochemical; details: further 27 hours, 50° C., 90 mmHg
Method: The anhydrous crystal of 5-Methyl-2-(1-piperazinyl) benzenesulfonic acid (10.00 g) and distilled water (30 ml) were added in a 100 ml round-bottomed flask and the mixture was stirred at 5° C. for 2 hours. The crystals were collected from the suspension by suction filtration and the crystals remained in the round-bottomed flask were recovered by washing with distilled water (3 ml). The crystals were combined and dried at 50° C. and 90 mmHg for 3 hours to give 5-methyl-2-(1-piperazinyl)benzenesulfonic acid monohydrate as white crystals (10.36 g, yield: 96.8%). After drying was further continued for 27 hours under the same conditions, the weight and appearance of the monohydrate were not changed. Water content measured by a Karl Fischer water content meter was 6.96%, which further verified that the product was the monohydrate (calculated content: 6.56%).
The anhydrous crystal of 5-Methyl-2-(1-piperazinyl) benzenesulfonic acid (10.00 g) and distilled water (75 ml) were charged in a 200 ml round-bottomed flask and the crystals were thoroughly dissolved by heating under reflux with stirring. The solution was then cooled to 5° C. with stirring and stirring was further continued for 2 hours at the same temperature. […] Water content measured by a Karl Fischer water content meter was 6.75%, which further verified that the product was the monohydrate. […]

[7] = Serum concentration (2): serum radioactivity after oral administration at several doses; details: male rats, Mean ± S.D (n = 5)

Cc1ccc(N2CCNCC2)c(S(=O)(=O)O)c1 [Anhydrous crystal, 2-(1-piperazinyl)-5-methylbenzenesulfonic acid, reference compound]
bioavailability, maximum value of fluctuation ([1]; po, 0.94 mg/kg): 43.72% | bioavailability, minimum value of fluctuation ([1]; po, 0.94 mg/kg): 33.03% | weight increase, 0 day ([2]; 57% RH): 0.00% | weight increase, 1 day ([2]; 57% RH): 6.99% | weight increase, 3 days ([2]; 57% RH): 7.08% | weight increase, 16 days ([2]; 57% RH): 6.89% | weight increase ([2]; 57% and 98% RH, 16 days, about 1 mole of water of crystal): about 7% | weight increase, 0 day ([2]; 98% RH): 0.00% | weight increase, 1 day ([2]; 98% RH): 7.35% | weight increase, 3 days ([2]; 98% RH): 7.36% | weight increase, 16 days ([2]; 98% RH): 7.12% | weight loss or thermal absorption peak due to release of the water of crystal (in words) ([3]; below 100° C.): no weight loss or no thermal absorption peak

Cc1ccc(N2CCNCC2)c(S(=O)(=O)O)c1 [Compound 2, 2-(1-piperazinyl)-5-methylbenzenesulfonic acid]
inhibition of the inflow of calcium ions into cardiac muscle cells (in words) (cardiac muscle cells): remarkably inhibits

Cc1ccc(N2CCNCC2)c(S(=O)(=O)O)c1.O [Monohydrate, 5-methyl-2-(1-piperazinyl)benzenesulfonic acid monohydrate]
bioavailability ([1]; po, 1 mg/kg): 38% | heating temperature at which water of crystal is gradually released ([4]; ambient or reduced pressure): ≥ 60 °C | stability (in words) ([4]; listed as monohydrate of 2-(1-piperazinyl)-5-methylbenzenesulfonic acid): stable at room temperature for a long period of time | stability (in words) [4]: stable and free from weight variation by hygroscopicity; also recorded: stable for a long period of time | weight increase, 0 day ([2]; 57% RH): 0.00% | weight increase, 1 day ([2]; 57% RH): 0.11% | weight increase, 3 days ([2]; 57% RH): 0.20% | weight increase, 16 days ([2]; 57% RH): 0.21% | weight change (in words) ([2]; 57% and 98% RH, 16 days): No substantial weight change | weight increase, 0 day ([2]; 98% RH): 0.00% | weight increase, 1 day ([2]; 98% RH): 0.28% | weight increase, 3 days ([2]; 98% RH): 0.40% | weight increase, 16 days ([2]; 98% RH): 0.39% | temperature from which weight loss and thermal absorption peak due to release of the water of crystal were observed [3]: around 60 °C | weight loss due to release of the water of crystal ([3]; 50 to 400° C.): 6.57% | serum concentration versus dose (in words) [5]: linear direct proportion to the dose of administration | weight and appearance after further drying [6]: not changed

Cc1ccc(N2CCNCC2)c(S(=O)(=O)O)c1 [labeled compound, labeled 2-(1-piperazinyl)-5-methylbenzenesulfonic acid monohydrate]
AUC(0-.infin.) ([1]; iv, 0.3 mg/kg): 816.28 ng eq·h/ml | AUC(0-.infin.) ([1]; po, 1 mg/kg): 1039.86 ng eq·h/ml | AUC ([7]; oral 0.1 mg/kg): 64.1 ± 12.3 ng·h/mL | C max ([7]; oral 0.1 mg/kg): 16.2 ± 2.6 ng/mL | T max ([7]; oral 0.1 mg/kg): 2.2 ± 0.5 h | t 1/2 ([7]; oral 0.1 mg/kg): 1.77 ± 0.34 h | AUC ([7]; oral 0.3 mg/kg): 270.5 ± 88.4 ng·h/mL | C max ([7]; oral 0.3 mg/kg): 69.0 ± 17.8 ng/mL | T max ([7]; oral 0.3 mg/kg): 2.2 ± 0.5 h | t 1/2 ([7]; oral 0.3 mg/kg): 1.33 ± 0.09 h | AUC ([7]; oral 1 mg/kg): 574.4 ± 113.2 ng·h/mL | C max ([7]; oral 1 mg/kg): 171.6 ± 31.1 ng/mL | T max ([7]; oral 1 mg/kg): 1.8 ± 0.5 h | t 1/2 ([7]; oral 1 mg/kg): 1.64 ± 0.17 h | AUC ([7]; oral 3 mg/kg): 1769.2 ± 498.4 ng·h/mL | C max ([7]; oral 3 mg/kg): 501.5 ± 133.8 ng/mL | T max ([7]; oral 3 mg/kg): 2.0 ± 0.0 h | t 1/2 ([7]; oral 3 mg/kg): 1.30 ± 0.08 h
